In PMC6856681, “Accumulation of Dietary S‐Methyl Cysteine Sulfoxide in Human Prostate Tissue” (Molecular Nutrition & Food Research, 2019):
Like-named read-outs stand apart in the source and are kept apart here.

How the values were obtained:
[1] = SAP study: metabolites in prostate biopsy tissue, peri-prostatic adipose tissue and urine after 4 weeks of broccoli soup supplementation vs control; format: in vivo, human
Description: The SAP study (Figure 2) was a two-arm, parallel un-blinded, dietary-supplementation study, delivering a short, high-dose broccoli soup supplement to a habitual diet to men in the pre-biopsy window before a trans-perineal prostate biopsy (TPB). The primary aim was to determine whether supplementation of a diet with a broccoli soup would enhance the levels of […] and other broccoli-derived metabolites in the prostate of men scheduled for prostate biopsy. Eighteen men were randomized to either continue their normal diet (non-supplementation controls) or receive three portions of a glucoraphanin-rich broccoli soup (300 g) per week for a minimum of 4 weeks manufactured from a broccoli cultivar heterozygous for a Myb28^villosa allele, as previously described.19 On the study day, samples of whole blood, urine (following a digital rectal prostatic massage), prostate, and peri-prostatic adipose tissue were collected. The protocol was approved by the Human Research Governance Committee ([…] 01/2016) at Quadram Institute Bioscience and given full ethical approval by The East of England - Cambridge East Research Ethics Committee (ref: 16/EE/0054). The trial was registered on a publicly accessible database (ClinicalTrials.gov, NCT02821728). A sample of whole blood for genotyping was obtained via the intravenous cannula inserted for use by the anesthetist, thus avoiding additional venipuncture. After prostatic massage, a first-pass urine sample was collected. TPB was performed under general or spinal anesthesia with appropriate antibiotic prophylaxis. Once anesthetized, the patient was positioned supine with their legs elevated in stirrups. A template grid was placed on the skin of the perineum and the prostate visualized by trans-rectal ultrasound scan. […] For the SAP study, eight biopsy cores of prostate tissue were taken from a region of the prostate not known or suspected to contain cancer. Five of these were snap frozen for metabolite analyses, two in RNAlater, and one in methanol. Two additional cores were taken from peri-prostatic adipose tissue and snap frozen. Snap-frozen tissue cores were individually weighed on a high-sensitivity balance and transferred to screw-top tubes. Two hundred microliters of cold Milli- Q® water and […] of autoclaved, acid-washed 710 to 1180 μm glass beads were added to each tube. […] The samples were then placed on a revolving shaker for 15 min at 4 °C. The tubes were centrifuged at 17 000 × g for 10 min at 4 °C and 50 μL of supernatant transferred to a new Eppendorf. 10 μL of 50% trichloroacetic acid (TCA) were added to each sample to precipitate proteins. The centrifugation step was repeated and 50 μL of supernatant transferred to HPLC insert vials for analysis by LC-MS/MS. […] Stock solutions of 1 mg mL^-1 sulfate (Sigma) and SMCSO (LKT laboratories Inc.) were generated by dilution of weighed powder into Milli-Q water. Serial fivefold dilutions were performed in the relevant matrix to produce 6-point calibration curves from 10 to 0 μg mL^-1 on the day of analysis. Sulfate was quantified using an Agilent 6490 triple-quad LC-MS mass spectrometer (Agilent technologies) with Thermo Scientific Hypercarb, Porous Graphitic Carbon (PGC) (3 × 50 mm, 3 μm) column. Two microliters were injected from each sample, with separation by 1% formic acid in Milli-Q water (mobile phase A) and 1% formic acid in methanol (mobile phase B). The gradient started at 8% mobile phase B, increasing to 70% over 5.5 min and returned to 8% mobile phase B for re-equilibration over the last 9.5 min. The column temperature was maintained at 60 °C and the flow rate at 0.3 mL min^-1. […] SMCSO was quantified with the Agilent system described above. […] Snap-frozen tissue cores were individually weighed on a high-sensitivity balance and transferred to screw-top tubes. Two hundred microliters of cold Milli-Q water and […] of autoclaved, acid-washed 710 to 1180 μm glass beads (Sigma) were added to each tube. […]

[2] = Effect of heating the soup to boiling (microwave or conduction) on metabolite amount; format: physicochemical; details: heating to boiling by microwave or conduction vs unheated control
Description: One portion of soup contained 280 ± 8.8 µmoles of glucoraphanin and 1513 ± 36.8 µmoles of SMCSO. The soup was provided frozen and heated up prior to consumption using a standard procedure. Heating either by microwave or conduction had no effect on SMCSO or glucoraphanin concentration (Figure 3).
Figure 3 The effect of heating soup to boiling on amount of a) glucoraphanin and b) SMCSO compared to unheated control by microwave or conduction heating. Columns are means of two independent samples.

[3] = design: method as in Sivapalan et al.19; details: human, ref Sivapalan et al.19, cited from earlier work
[4] = human, cited from earlier work
[5] = SMCSO in tissue cores from radical prostatectomies of men not in a dietary study; format: in vivo, human; details: two cores from each of four glands
Description: To further explore the presence of un‐metabolized SMCSO in the prostate gland of men who had not been within a dietary study, tissue samples were obtained from patients who had endoscopic extraperitoneal radical prostatectomies. Access to tissue and subsequent analyses were undertaken under ethical approval granted from the Faculty of Medicine and Health Sciences Research Ethics Committee of the University of East Anglia (FMHS 20122014–37). The prostate gland was removed from the abdominal cavity immediately after resection and rapidly biopsied after extraction to avoid ischemic artifacts using a standard core biopsy instrument, as previously described.23 The extracted whole prostatectomy specimen was placed on a surgical table, the apex and base of the gland were identified, and the prostate cut transversely (axial section) half way along the gland. With the use of the midline and the urethra as guides, biopsies were taken from the peripheral zones avoiding obvious tumor sites where feasible. Two cores were taken from each of four glands for analyses. The tissue was snap frozen and analyzed for the presence of SMCSO as described above.

[6] = Feeding of 35S-labeled SMCSO to human volunteers, recovery of label in urine (Waring et al.); format: in vivo
Description: Previously, there has been only a single study of the metabolism of SMCSO in humans. Waring and colleagues describe the feeding of ^35S‐labeled SMCSO to human volunteers, and the recovery of 96% of the label in urine after 14 days, of which 40% was inorganic sulfate, indicating almost complete absorption of SMCSO (and/or its colonic microbiological derivatives).18 How SMCSO was metabolized is unknown, but it is likely that it was due to initial cysteine‐S‐conjugate β lyase activity by gut microbiome, as opposed to mammalian enzyme activity.

[7] = both, human, in vivo
Description: (§1) SMCSO was quantified with the Agilent system described above. Samples were injected at 2 µL eluted at a flow rate of 0.3 mL min^–1 on an Agilent SB‐AQ 1.8 µM (100 × 21 mm) C18 column. Separation was carried out using 10 mM ammonium acetate + 0.05% hetafluorobutyric acid in Milli‐Q water (mobile phase A) and 10 mM ammonium acetate + 0.05% hetafluorobutyric acid in 90% methanol (mobile phase B). The gradient started at 2% mobile phase B, increasing over 2 min to 5% B and returning to 2% mobile phase B for re‐equilibration over the last 2 min. The column was set at 20 °C due to the instability of SMCSO at high temperatures. The LC eluent flow was sprayed into the mass spectrometer interface without splitting. SMCSO ion was monitored by MS in MRM mode (m/z = 87.9) in positive polarity with ESI. The source parameters were: gas temperature 200 °C, gas flow 16 L min^–1, sheath gas temperature 300 °C with a sheath gas flow of 11 L min^–1, a nebulizer pressure of 50 psi, and capillary voltage 3500 V. Quantification was performed by peak area against the matrix‐matched standard curve, and identification by retention time and product ions.
(§2) To quantify the amount of SMCSO in plasma and urine from a single portion of soup, samples were analyzed from a previously described acute intervention study (NCT02300324).24 In this study, ten volunteers consumed a single portion of the identical soup to that used in the SAP study as described above as part of a three‐phase cross‐over study. Briefly, men and woman aged 18–65 years with a BMI between 19.5 and 35 kg m^–2 were enrolled into a dietary intervention trial undertaken at the Human Nutrition Unit of the Quadram Institute Bioscience Subjects were recruited on the basis of fasted (≥8 h) screening blood/urine samples and a completed health questionnaire. The study involved a 48‐h pre‐intervention diet restriction, a study day involving a 9‐h stay at the HNU and a sample collection the following morning (24 h post soup consumption) followed by a washout period of 2 weeks. […]

[8] = design: method as in PMID 14768973; details: cited from earlier work
clinical = details: both, human, in vivo
Description: as §1, §2

[9] = read-out: Plasma C max; following a portion of cruciferous vegetables, transient; cited from earlier work
[10] = human prostate biopsy cores, LC–MS/MS, both study arms

C[S@@+]([O-])CCCC/C(=N/OS(=O)(=O)O)S[C@@H]1O[C@H](CO)[C@@H](O)[C@H](O)[C@H]1O [Glucoraphanin, 4‐Methylsulphinylbutyl glucosinolate]
Detection in prostate tissue [1, 10]: No glucoraphanin or sulforaphane (and its thiol conjugates) was detected | Effect of heating on concentration in the soup [2]: no effect | Plasma C24h ([3]; 24 h after single 300 mL portion of broccoli soup): <10 nM | Plasma AUC ([3]; single 300 mL portion of broccoli soup (280 µmoles glucoraphanin)): 0.15 ± 0.08 µM·h | Cmax ([3]; single 300 mL portion of broccoli soup (280 µmoles glucoraphanin), read-out: Plasma Cmax): 30 ± 10 nM | Plasma Tmax ([3]; single 300 mL portion of broccoli soup): 2.23 ± 0.09 h | Urine: percentage excreted after 24 h ([4]; percentage of consumed glucoraphanin excreted intact, ref Sivapalan et al.19): 0.51 ± 0.24% | Urine: total excreted in 24 h ([4]; single 300 mL portion of broccoli soup (280 µmoles glucoraphanin), ref Sivapalan et al.19): 1.44 ± 0.66 µmol | Conversion of glucoraphanin to sulforaphane ([4]; value assumed for the dose-equivalent calculation): 8%

C[S@+]([O-])C[C@H](N)C(=O)O [SMCSO, (+)‐S‐methyl cysteine sulfoxide]
Detection in prostate tissue ([1]; in vivo): present | SMCSO level in peri-prostatic adipose tissue ([1]; in vivo): higher levels than in prostate tissue but without significant difference between the two groups | SMCSO level in urine, supplement group vs control ([1]; in vivo): higher in urine in the supplement group compared to the control | Detection of SMCSO in radical prostatectomy tissue samples [5]: detected in seven of the eight tissue samples | Proportion of SMCSO absorbed from the GI tract ([6]; concluding statement): ~100% | Proportion of consumed SMCSO that is metabolized in vivo ([6]; inferred from this study together with Waring et al. 18): about 90% | Effect of heating on concentration in the soup [2]: no effect | Plasma concentration of SMCSO relative to that of glucoraphanin or sulforaphane [7]: about 1000 fold | Share of recovered urinary label that was inorganic sulfate ([8]; human volunteers fed 35S-labeled SMCSO, 14 days): 40% | Recovery of 35S label in urine ([8]; human volunteers fed 35S-labeled SMCSO, after 14 days): 96% | Proportion of SMCSO absorbed (as un-metabolized SMCSO or unknown derivatives) ([8]; human): 97% | concentration at 24 h (clinical): 4660 ± 1520 nM | Tmax (clinical; Plasma Tmax): 1.4 h

C[S+]([O-])CCCCN=C=S (centres unmarked) [Sulforaphane, sulforaphane]
Detection in prostate tissue [1, 10]: No glucoraphanin or sulforaphane (and its thiol conjugates) was detected | Sulforaphane in urine ([1]; human, participants in both arms): detected in urine from participants in both arms of the study | Cmax [9]: < 1000 nM

O=S(=O)(O)O [sulfate]
Sulfate level in prostate tissue between the two dietary arms ([1]; human prostate biopsy cores): no significant difference
